Key:
AT1 Receptor (AT1R) = AT1 Receptor (AT1R) (Homo sapiens (Human), UniProt P30556); assay: Measurement of inhibitory activity on AT1 receptor (Tag-lite HTRF, Tb-labeled AT1R cells, angiotensin receptor red agonist); format: binding; settings: 1 h room temperature
Experimental: Measurement of Inhibitory Activity on AT1 Receptor ([…])/AT2 Receptor (AT2R)
Through the following steps, the inhibitory activity of the compound on AT1R/AT2R (IC50 value) was determined:
1) An appropriate amount of 1×TLB (Tag-lite Buffer) was prepared and well mixed for use.
2) The compound was diluted by 10 times with ddH2O or DMSO. The compound was then dilute to 4 times of the working concentration with 1×TLB and mixed well for use.
3) 8600 nM Tag-lite angiotensin receptor red agonist was diluted to 12 nM (4×Kd) with 1×TLB.
4) 5 ml 1×TLB was taken into a 15 ml centrifuge tube.
5) After thawing 1 tube of Tb-labeled AT1R/AT2R cells in a 37° C. water bath, the cells were quickly transferred to the 1×TLB in step 4), mixed gently, and centrifuged at 1200 g for 5 minutes at room temperature.
6) The supernatant was aspirated gently, and the cells were resuspended and mixed in 2.7 ml 1×TLB, and then placed at room temperature until use.
7) 10 μl cells were added to all test wells, and 5 μl 4× working solution of the compound from step 2) was added to the corresponding test wells. 5 μl 4× Tag-lite angiotensin receptor red agonist well diluted in step 3) was added to all test wells.
8) After leaving the reaction plate at room temperature for 1 h, data were measured and analyzed using Envision HTRF Reader, and the half inhibitory concentration (IC50) of the compound on AT1R/AT2R was calculated with the GraphPad Prism four-parameter equation.

AT2 Receptor (AT2R) = AT2 Receptor (AT2R) (Homo sapiens (Human), UniProt P50052); assay: Measurement of inhibitory activity on AT2 receptor (Tag-lite HTRF, Tb-labeled AT2R cells, angiotensin receptor red agonist); format: binding; settings: 1 h room temperature
Sequence of AT2 Receptor (AT2R) (P50052 whole entry): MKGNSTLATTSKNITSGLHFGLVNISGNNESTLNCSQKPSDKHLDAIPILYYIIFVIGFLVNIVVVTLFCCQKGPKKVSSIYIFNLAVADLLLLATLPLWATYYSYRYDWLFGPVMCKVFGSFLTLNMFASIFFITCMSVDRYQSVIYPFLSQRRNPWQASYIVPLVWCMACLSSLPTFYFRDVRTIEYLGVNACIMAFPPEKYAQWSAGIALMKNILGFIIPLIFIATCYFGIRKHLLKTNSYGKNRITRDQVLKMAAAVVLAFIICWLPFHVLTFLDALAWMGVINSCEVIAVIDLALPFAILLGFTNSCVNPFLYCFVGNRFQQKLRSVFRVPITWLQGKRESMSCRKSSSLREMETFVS

Sequence of AT1 Receptor (AT1R) (P30556 whole entry): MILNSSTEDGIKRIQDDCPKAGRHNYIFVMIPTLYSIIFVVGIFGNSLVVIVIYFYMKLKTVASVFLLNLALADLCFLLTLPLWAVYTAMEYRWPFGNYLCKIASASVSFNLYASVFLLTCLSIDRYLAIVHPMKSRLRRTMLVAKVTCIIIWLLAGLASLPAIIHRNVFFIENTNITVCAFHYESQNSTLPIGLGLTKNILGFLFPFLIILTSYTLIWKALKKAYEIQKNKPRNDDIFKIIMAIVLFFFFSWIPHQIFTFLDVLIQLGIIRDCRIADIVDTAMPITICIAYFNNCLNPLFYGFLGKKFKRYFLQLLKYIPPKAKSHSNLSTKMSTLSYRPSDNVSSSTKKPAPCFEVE

Compound	IC50 (AT1 Receptor (AT1R)) [nM]	IC50 (AT2 Receptor (AT2R)) [nM]
Cc1ccc(CN(C)C(=O)N2[C@H]3CC[C@@H]2[C@@H](C(=O)O)N(C(=O)N(c2ccccc2)c2ccccc2)C3)cc1 [Compound C162, (1R,2S,5S)-3-(diphenylcarbamoyl)-8-(methyl(4-methylbenzyl)carbamoyl)-3,8-diazabicyclo [3.2.1]octane-2-carboxylic acid]	> 10000	4.04
CC(C(=O)N1C[C@@H]2CC[C@H]([C@H]1C(=O)O)N2C(=O)OCc1ccccc1)(c1ccccc1)c1ccccc1 [Compound C157]	> 10000	27.1
CN(Cc1ccccc1)C(=O)N1[C@H]2CC[C@@H]1[C@@H](C(=O)O)N(C(=O)C(c1ccccc1)c1ccccc1)C2 [Compound C82, (1R,2S,5S)-8-(benzyl(methyl)carbamoyl)-3-(2,2-diphenylacetyl)-3,8-diazabicyclo[3.2.1]octane-2-carboxylic acid]	> 10000	3.98
O=C(O)[C@@H]1[C@H]2CC[C@@H](CN1C(=O)C(c1ccccc1)c1ccccc1)N2C(=O)Nc1ccccc1 [Compound C83, (1R,2S,5S)-3-(2,2-diphenylacetyl)-8-(phenylcarbamoyl)-3,8-diazabicyclo [3.2.1]octane-2-carboxylic acid]	> 10000	18.1
O=C(O)[C@H]1[C@@H]2CC[C@H](CN1C(=O)N1c3ccccc3C=Cc3ccccc31)N2C(=O)C(c1ccccc1)c1ccccc1 [Compound C71, (1S,2R,5R)-3-(5H-dibenzo[bf]azepine-5-carbonyl)-8-(2,2-diphenylacetyl)-3,8-diazabicyclo[3. 2.1]octane-2-carboxylic acid]	> 10000	50.4
O=C(O)[C@@H]1[C@H]2CC[C@@H](CN1C(=O)C(c1ccccc1)c1ccccc1)N2C(=O)Oc1ccccc1 [Compound C79, (1R,2S,5S)-3-(2,2-diphenylacetyl)-8-(phenoxycarbonyl)-3,8-diazabicyclo[3.2.1]octane-2-carboxylic acid]	> 10000	24.6
CN(Cc1ccc(Cl)cc1)C(=O)N1[C@H]2CC[C@@H]1[C@@H](C(=O)O)N(C(=O)N(c1ccccc1)c1ccccc1)C2 [Compound C150, (1R,2S,5S)-8-((4-chlorobenzyl) (methyl)carbamoyl)-3-(diphenylcarbamoyl)-3,8-diazabicyclo [3.2.1]octane-2-carboxylic acid]	> 10000	9.82
O=C(O)[C@@H]1C2CCC(CC2OCc2ccccc2)N1C(=O)C(c1ccccc1)c1ccccc1 (stereo in doubt) [Compound C283, (1S,3S,4S)-5-(benzyloxy)-2-(2,2-diphenylacetyl)-2-azabicyclo[2.2.2]octane-3-carboxylic acid]	> 10000	46.3
O=C(O)[C@@H]1[C@H]2CC[C@@H](CN1C(=O)N(c1ccccc1)c1ccccc1)N2C(=O)N(c1ccccc1)c1ccccc1 [Compound C5, (1R,2S,5S)-3,8-bis (diphenylcarbamoyl)-3,8-diazabicyclo [3.2.1]octane-2-carboxylic acid]	> 10000	15.3
O=C(O)[C@@H]1[C@H]2CC[C@@H](CN1C(=O)C(c1ccccc1)c1ccccc1)N2C(=O)NCc1ccccc1 [Compound C78, (1R,2S,5S)-8-(benzylcarbamoyl)-3-(2,2-diphenylacetyl)-3,8-diazabicyclo[3. 2.1]octane-2-carboxylic acid]	> 10000	55
Cc1ccccc1CN(C)C(=O)N1[C@H]2CC[C@@H]1[C@@H](C(=O)O)N(C(=O)N(c1ccccc1)c1ccccc1)C2 [Compound C163, (1R,2S,5S)-3-(diphenylcarbamoyl)-8-(methyl (2-methylbenzyl)carbamoyl)-3,8-diazabicyclo [3.2.1]octane-2-carboxylic acid]		65.6
O=C(O)[C@@H]1[C@H]2CC[C@@H](CN1C(=O)N(c1ccccc1)c1ccccc1)N2S(=O)(=O)c1ccccc1 [Compound C182, (1R,2S,5S)-3-(diphenylcarbamoyl)-8-(phenylsulfulyl)-3,8-diazabicyclo [3.2.l]octane-2-carboxylic acid]		432
O=C(O)[C@@H]1[C@H]2CC[C@@H](CN1C(=O)N1c3ccccc3C=Cc3ccccc31)N2C(=O)N(c1ccccc1)c1ccccc1 [Compound C7, (1R,2S,5S)-3-(5H-dibenzo[b,f]azepine-5-carbonyl)-8-(diphenylcarbamoyl)-3,8-diazabicyclo[3. 2.1]octane-2-carboxylic acid]		82.7
CCN(Cc1csc(C)c1)C(=O)N1[C@H]2CC[C@@H]1[C@@H](C(=O)O)N(C(=O)N(c1ccccc1)c1ccccc1)C2 [Compound C208, (1R,2S,5S)-3-(diphenylcarbamoyl)-8-(ethyl((5-methylthiophen-3-yl)methyl)carbamoyl)-3,8-diazabicyclo [3.2.1]octane-2-carboxylic acid]		11.8
O=C(O)[C@@H]1[C@H]2CC[C@@H](CN1C(=O)N(c1ccccc1)c1ccccc1)N2C(=O)c1ccccc1-c1ccccc1 [Compound C240, (1R,2S,5S)-8-([1,1′-biphenyl]-2-carbonyl)-3-(diphenylcarbamoyl)-3,8-diazabicyclo [3.2.1]octane-2-carboxylic acid]		113
Cc1ccc(CN(C(=O)N2[C@H]3CC[C@@H]2[C@@H](C(=O)O)N(C(=O)N(c2ccccc2)c2ccccc2)C3)C2CC2)s1 [Compound C204]		4.93
Cc1ccc(CN(C)C(=O)N2[C@H]3CC[C@@H]2[C@@H](C(=O)O)N(C(=O)N(c2ccccc2)c2ccccc2)C3)s1 [Compound C203, (1R,2S,5S)-3-(diphenylcarbamoyl)-8-(methyl ((5-methylthiophen-2-yl)methyl)carbamoyl)-3,8-diazabicyclo [3.2.1]octane-2-carboxylic acid]		13.7
O=C(O)[C@H]1[C@@H]2CC[C@H](CN1C(=O)N(c1ccccc1)c1ccccc1)N2C(=O)N(c1ccccc1)c1ccccc1 [Compound C13, (1S,2R,5R)-3,8-bis (diphenylcarbamoyl)-3,8-diazabicyclo [3.2.1]octane-2-carboxylic acid]		22.2
CCN(Cc1ccsc1)C(=O)N1[C@H]2CC[C@@H]1[C@@H](C(=O)O)N(C(=O)N(c1ccccc1)c1ccccc1)C2 [Compound C207, (1R,2S,5S)-3-(diphenylcarbamoyl)-8-(ethyl (thiophene-3-ylmethyl)carbamoyl)-3,8-diazabicyclo [3.2.1]octane-2-carboxylic acid]		10.4
O=C(O)[C@@H]1[C@H]2CC[C@@H](CN1C(=O)N(c1ccccc1)c1ccccc1)N2C(=O)N1CCC[C@@H]1c1ccccc1 [Compound C140, (1R,2S,5S)-3-(diphenylcarbamoyl)-8-((R)-2-phenylpyrrolidine-1-carbonyl)-3,8-diazabicyclo [3.2.1]octane-2-carboxylic acid]		5.49
CC(CC(=O)N1[C@H]2CC[C@@H]1[C@@H](C(=O)O)N(C(=O)N(c1ccccc1)c1ccccc1)C2)c1ccccc1 (stereo partly drawn) [Compound C224, (1R,2S,5S)-3-(diphenylcarbamoyl)-8-(3-phenylbutylyl)-3,8-diazabicyclo [3.2.1]octane-2-carboxylic acid]		23.8
CN(Cc1ccncc1)C(=O)N1[C@H]2CC[C@@H]1[C@@H](C(=O)O)N(C(=O)N(c1ccccc1)c1ccccc1)C2 [Compound C125, (1R,2S,5S)-3-(diphenylcarbamoyl)-8-(methyl(pyridine-4-ylmethyl)carbamoyl)-3,8-diazabicyclo [3.2.1]octane-2-carboxylic acid]		19
O=C(O)[C@@H]1[C@H]2CC[C@@H](CN1C(=O)N(c1ccccc1)c1ccccc1)N2C(=O)C#Cc1ccccc1 [Compound C256, (1R,2S,5S)-3-(diphenylcarbamoyl)-8-(3-phenylpropioloyl)-3,8-diazabicyclo [3.2.1]octane-2-carboxylic acid]		40
O=C(O)[C@@H]1[C@H]2CC[C@@H](CN1C(=O)N(c1ccccc1)c1ccccc1)N2C(=O)N1CCc2ccccc2C1 [Compound C131, (1R,2S,5S)-3-(diphenylcarbamoyl)-8-(1,2,3,4-tetrahydroisoquinoline-2-carbonyl)-3,8-diazabicyclo [3.2.1]octane-2-carboxylic acid]		495
O=C(O)[C@@H]1[C@H]2CC[C@@H](CN1C(=O)N(c1ccccc1)c1ccccc1)N2C(=O)CCc1ccccc1 [Compound C221, (1R,2S,5S)-3-(diphenylcarbamoyl)-8-(3-phenylpropionyl)-3,8-diazabicyclo [3.2.1]octane-2-carboxylic acid]		76.7
CCN(Cc1ccc(C)s1)C(=O)N1[C@H]2CC[C@@H]1[C@@H](C(=O)O)N(C(=O)C(c1ccccc1)c1ccccc1)C2 [Compound C278, (1R,2S,5S)-3-(2,2-diphenylacetyl)-8-(ethyl((5-methylthiophen-2-yl)methyl)carbamoyl)-3,8-diazabicyclo [3.2.1]octane-2-carboxylic acid]		10.6
O=C(O)[C@@H]1[C@H]2CC[C@@H](CN1C(=O)N(c1ccccc1)c1ccccc1)N2C(=O)Cc1c[nH]c2ccccc12 [Compound C259, (1R,2S,5S)-8-(2-(1H-indole-3-yl)acetyl)-3-(diphenylcarbamoyl)-3,8-diazabicyclo [3.2.1]octane-2-carboxylic acid]		245

Reference: patent US11453690B2, “Receptor inhibitor, pharmaceutical composition comprising same, and use thereof” (BEIJING TIDE PHARMACEUTICAL CO., LTD., priority 2018, dated 2022)
